Numbers after ± are expanded uncertainties.

The nature of the series: refractive index (Na D-line) (dimensionless). Conditions: 298.15 K; 100 kPa; Liquid; Standard Abbe refractometry.
On to `CC(=O)OCCC(C)C` [3-methylbutyl ethanoate], for which the refractive index is listed as 1.39852 ± 0.00037. On to `OCc1ccccc1` [benzenemethanol], for which the refractive index is on record as 1.53876 ± 0.00037. `C[S+](C)[O-]` [dimethyl sulfoxide]: the refractive index turned out to be 1.47713 ± 0.00033.

In general, refractive index refers to a measure of how strongly the sample bends light.

The values are drawn from the NIST ThermoML archive (doi:10.1021/acs.jced.9b00396).
